As a reminder, the pKi is the negative decadic logarithm of the Ki, by convention in mol/L.

Ki data for 68 molecules are collected here from patent US8232406B2, “c-MET protein kinase inhibitors” (Vertex Pharmaceuticals Incorporated, priority 2006, dated 2012).

pKi: −log10 of the molar value.

The target of this assay is c-MET (Homo sapiens, UniProt P08581). In words: Ki determination for the inhibition of c-MET (standard radiometric 33P-ATP kinase assay, polyE4Y substrate). The class given is biochemical. The note with it: 1.0 nM c-Met, 35 μM ATP, 0.5 mg/mL polyE4Y, 20 min; competitive tight-binding fit. How it is done: Ki Determination for the Inhibition of c-MET
Chain of c-MET (P08581 25-1390): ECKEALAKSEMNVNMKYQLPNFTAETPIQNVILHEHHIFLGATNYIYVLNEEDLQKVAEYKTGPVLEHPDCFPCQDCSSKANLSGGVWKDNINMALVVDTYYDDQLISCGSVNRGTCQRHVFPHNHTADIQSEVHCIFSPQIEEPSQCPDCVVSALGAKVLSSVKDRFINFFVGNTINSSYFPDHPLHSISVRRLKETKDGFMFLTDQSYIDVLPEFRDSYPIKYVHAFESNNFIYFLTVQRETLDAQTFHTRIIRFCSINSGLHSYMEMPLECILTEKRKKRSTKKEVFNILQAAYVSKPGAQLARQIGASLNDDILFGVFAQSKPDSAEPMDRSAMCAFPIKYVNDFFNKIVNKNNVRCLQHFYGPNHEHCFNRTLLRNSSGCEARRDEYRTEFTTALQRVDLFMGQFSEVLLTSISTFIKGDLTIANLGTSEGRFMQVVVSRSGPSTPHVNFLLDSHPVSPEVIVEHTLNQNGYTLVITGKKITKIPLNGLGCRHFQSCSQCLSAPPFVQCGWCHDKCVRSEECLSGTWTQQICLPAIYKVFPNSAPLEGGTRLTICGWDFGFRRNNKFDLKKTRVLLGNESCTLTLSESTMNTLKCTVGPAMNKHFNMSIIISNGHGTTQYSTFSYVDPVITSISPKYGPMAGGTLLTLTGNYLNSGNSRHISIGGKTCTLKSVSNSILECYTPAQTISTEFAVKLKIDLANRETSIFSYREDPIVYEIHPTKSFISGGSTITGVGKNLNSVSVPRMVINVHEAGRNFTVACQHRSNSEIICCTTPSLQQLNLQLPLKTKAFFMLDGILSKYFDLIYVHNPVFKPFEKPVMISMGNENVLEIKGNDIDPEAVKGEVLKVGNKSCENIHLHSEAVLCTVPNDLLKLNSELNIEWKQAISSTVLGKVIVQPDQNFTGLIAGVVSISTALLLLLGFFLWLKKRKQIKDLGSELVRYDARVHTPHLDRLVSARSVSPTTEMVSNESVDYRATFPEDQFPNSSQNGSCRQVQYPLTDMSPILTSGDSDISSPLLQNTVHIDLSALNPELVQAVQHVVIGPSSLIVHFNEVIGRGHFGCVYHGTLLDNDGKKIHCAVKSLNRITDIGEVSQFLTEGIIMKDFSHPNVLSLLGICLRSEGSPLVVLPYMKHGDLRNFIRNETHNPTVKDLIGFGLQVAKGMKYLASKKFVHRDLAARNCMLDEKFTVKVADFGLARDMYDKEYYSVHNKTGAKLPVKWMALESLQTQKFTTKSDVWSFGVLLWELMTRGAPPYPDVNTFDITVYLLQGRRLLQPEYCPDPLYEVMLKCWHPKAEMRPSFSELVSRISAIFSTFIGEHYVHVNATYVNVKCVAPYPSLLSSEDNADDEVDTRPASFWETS
Compounds of the invention were screened for their ability to inhibit c-MET kinase activity using a standard radiometric assay. Briefly, in this kinase assay the transfer of the terminal ^33P-phosphate in ^33P-ATP to substrate polyE4Y is interrogated. The assay was carried out in 96-well plates to a final volume of 100 μL per well containing 1.0 nM c-Met, 100 mM HEPES (pH 7.5), 10 mM MgCl2, 25 mM NaCl, 0.01% BSA, 1 mM DTT, 0.5 mg/mL polyE4Y, and 35 μM ATP. Accordingly, compounds of the invention were dissolved in DMSO to make 10 mM initial stock solutions. Serial dilutions in DMSO were then made to obtain the final solutions for the assay. A 1.5 μL aliquot of DMSO or inhibitor in DMSO was added to each well. The reaction was initiated by the addition of ^33P-ATP and polyE4Y (obtained from Sigma). After 20 min, the reaction was quenched with 50 μL of 30% trichloroacetic acid (TCA) containing 4 mM ATP. The reaction mixture was transferred to the 0.66 mm GF filter plates (Corning) and washed three times with 5% TCA. Following the addition of 50 μL of Ultimate Gold™ high efficiency scintillant (Packard Bioscience), the samples were counted in a Packard TopCount NXT Microplate Scintillation and Luminescence Counter (Packard BioScience). The Ki values were calculated using Microsoft Excel Solver macros to fit the data to the kinetic model for competitive tight-binding inhibition.
For `Nc1ncc(-c2ccc(N3CCCC3)nc2)nc1-c1nncn1-c1cccc(F)c1F` [I-A-4], the pKi was 6.00 to 7.00.

The molecule `CS(=O)(=O)c1ccc(-c2cnc(N)c(-c3nnnn3-c3cccc(F)c3F)c2)cc1` [I-A-250] gave a pKi not below 7.00.

`CN1CCN(Cc2ccc(-c3cnc(N)c(-c4nnnn4-c4cccc(F)c4F)c3)cc2)CC1` [I-A-62, 3-(1-(2,3-Difluorophenyl)-1H-tetrazol-5-yl)-5-(4-((4-methylpiperazin-1-yl)methyl)phenyl)pyridin-2-amine] gave a pKi not below 7.00.

`CN(C)C1CCN(Cc2ccc(-c3cnc(N)c(-c4nnnn4-c4cccc(F)c4F)c3)cc2)C1` (centres unmarked) [I-A-147] gave a pKi not below 7.00.

The molecule `COC(=O)C(C)NC(=O)Nc1cccc(-c2cnc(N)c(-c3nnnn3-c3cccc(F)c3F)c2)c1` (centres unmarked) [I-A-327] had a pKi of 6.00 to 7.00.

For `Nc1ncc(-c2cc3c(s2)CCNCC3)cc1-n1nnnc1-c1cccc(F)c1F` [I-E-2], the pKi was 6.00 to 7.00.

For the molecule `CC(=O)Nc1ccc(-c2cnc(N)c(-c3nnnn3-c3cccc(F)c3F)c2)c(F)c1` [I-A-126], the pKi was not below 7.00.

With `Nc1ncc(-c2cccnc2)cc1-c1nnnn1-c1c(F)cccc1F` [I-A-608], the pKi was 6.00 to 7.00.

For `Nc1ncc(-c2ccccn2)cc1-c1nnnn1-c1cccc(F)c1F` [I-A-493], the negative logarithm of the Ki (pKi) is 6.00 to 7.00.

With `Nc1ncc(-c2ccc(NC(=O)Nc3cccs3)cc2)cc1-c1nnnn1-c1cccc(F)c1F` [I-A-282], the pKi is 6.00 to 7.00.

In the case of `Nc1ncc(-c2cn[nH]c2)cc1-c1nncn1-c1cccc(Cl)c1F` [I-A-439], the pKi is 6.00 to 7.00.

`CN(C)Cc1ccc(-c2cnc(N)c(-c3nnnn3-c3c(F)ccc(F)c3F)c2)cc1` [I-A-381] gave a pKi not below 7.00.

`Nc1ncc(-c2ccc(NC(=O)CN3CCC[C@H]3CO)cc2)cc1-c1nnnn1-c1cccc(F)c1F` [I-A-160] showed a pKi of 6.00 to 7.00.

Take `COc1ccc(F)cc1-n1nnnc1-c1cc(-c2cnn(C3CCNCC3)c2)cnc1N` [I-A-633]: the pKi was 6.00 to 7.00.

On to `NC(=O)Nc1ccc(-c2cnc(N)c(-c3nnnn3-c3cccc(F)c3F)c2)cc1` [I-A-183], for which the pKi is not below 7.00.

Take `CC(C)C(=O)N1CC=C(c2cnc(N)c(-c3nnnn3-c3cccc(F)c3F)c2)CC1` [I-A-512]: the pKi was not below 7.00.

Molecule `CC(=O)N1CCN(Cc2ccc(-c3cnc(N)c(-c4nc5cnccc5n4-c4cccc(F)c4F)c3)cc2)CC1` [I-D-6] gave a negative logarithm of the Ki (pKi) not below 7.00.

`Nc1ncc(-c2cnn([C@H]3CCOC3)c2)cc1-c1nnnn1-c1cccc(F)c1F` [I-A-425]: the pKi was not below 7.00.

As to `Nc1ncc(-c2cnn(C3CCNCC3)c2)nc1-c1nnnn1-c1cccc(F)c1F` [I-A-468], the negative logarithm of the Ki (pKi) is not below 7.00.

In turn, `CCOc1cccc(-c2cnc(N)c(-c3nncn3-c3cccc(F)c3F)n2)c1` [I-A-31] gave a pKi of 6.00 to 7.00.

As to `CC1(C)CC(C(=O)N2CC=C(c3cnc(N)c(-c4nnnn4-c4cccc(F)c4F)c3)CC2)CCO1` (centres unmarked) [I-A-515], the pKi is not below 7.00.

`Nc1ncc(-c2cnn(C3CCNCC3)c2)cc1-c1nc2cccnc2n1-c1cccc(F)c1F` [I-D-7]: the pKi was not below 7.00.

`Nc1ncc(C2=CCCN(C(=O)C(F)(F)F)CC2)cc1-c1nnnn1-c1cccc(F)c1F` [I-A-647] showed a negative-log Ki (pKi) of 6.00 to 7.00.

The molecule `COC(=O)c1ccc(-c2cnc(N)c(-c3nnnn3-c3cccc(F)c3F)c2)cc1` [I-A-316] showed a pKi of 6.00 to 7.00.

`Nc1ncc(-c2ccc(CN3CCCC3)cc2)cc1-c1nnnn1-c1cccc(F)c1F` [I-A-67] gave a pKi not below 7.00.

`Nc1ncc(C2=CCN(C(=O)C3CCCOC3)CC2)cc1-c1nnnn1-c1cccc(F)c1F` (centres unmarked) [I-A-522] had a pKi not below 7.00.

On to `Nc1ncc(-c2cnn(C3CCNCC3)c2)cc1-c1nnnn1-c1cccc(Cl)c1F` [I-A-626], for which the pKi was not below 7.00.

In the case of `Nc1ncc(-c2ccc(CN3CCCC3)cc2)cc1-c1nnc(O)n1-c1cccc(F)c1F` [I-A-362], the pKi was 6.00 to 7.00.

With `Nc1ccc(-c2cnc(N)c(-c3nnnn3-c3cccc(F)c3F)c2)cc1[N+](=O)[O-]` [I-A-312], the pKi is not below 7.00.

Molecule `Nc1ncc(-c2ccc(C3CCCN3)cc2)cc1-c1nnnn1-c1cccc(F)c1F` (centres unmarked) [I-A-258] had a pKi not below 7.00.

`CN(C)Cc1ccc(-c2cnc(N)c(-c3nnnn3-c3cc(F)cc(F)c3)c2)cc1` [I-A-591]: the pKi was 6.00 to 7.00.

`Nc1ncc(-c2cccc(Cl)c2)cc1-c1nnnn1-c1cccc(F)c1F` [I-A-225] gave a pKi of 6.00 to 7.00.

In turn, `Nc1ncc(-c2cccc3c2OC(F)(F)O3)cc1-c1nnnn1-c1cccc(F)c1F` [I-A-310] showed a pKi of 6.00 to 7.00.

In turn, `Nc1ncc(-c2cnn(C3CCN(CC4CCC4)CC3)c2)cc1-c1nnnn1-c1cccc(Cl)c1F` [I-A-473] gave a negative-log Ki (pKi) not below 7.00.

For `N#CCC(=O)Nc1ccc(-c2cnc(N)c(-c3nnnn3-c3cccc(F)c3F)c2)cc1` [I-A-334], the pKi is not below 7.00.

Consider `CCCN1CCC(n2cc(-c3cnc(N)c(-c4nnnn4-c4cccc(F)c4F)c3)cn2)CC1` [I-A-461], for which the negative logarithm of the Ki (pKi) is not below 7.00.

Regarding `Nc1ncc(-c2cnn(C3CCCNCC3)c2)cc1-c1nnnn1-c1cccc(Cl)c1Cl` (centres unmarked) [I-A-429], the pKi was not below 7.00.

For the molecule `Nc1ncc(-c2cccnc2)cc1-c1nnsc1-c1cccc(Cl)c1Cl` [I-C-1], the pKi is 6.00 to 7.00.

In turn, `CC(=O)c1ccc(-c2cnc(N)c(-c3nnnn3-c3cccc(Cl)c3Cl)c2)cc1` [I-A-88] gave a pKi of 6.00 to 7.00.

Regarding `Nc1ncc(-c2cnn(CCO)c2)cc1-c1nc2cnccc2n1-c1cccc(F)c1F` [I-D-8], the pKi is not below 7.00.

Molecule `CC(C)C(=O)N1CCC(n2cc(-c3cnc(N)c(-c4nnnn4-c4cccc(Cl)c4F)c3)cn2)CC1` [I-A-441] gave a pKi not below 7.00.

For the molecule `Nc1ncc(-c2cnn(C3CCNCC3)c2)cc1-c1nc2cccnc2n1-c1cccc(Cl)c1F` [I-D-15], the pKi is 6.00 to 7.00.

`CN(C)CCCN(C)Cc1ccc(-c2cnc(N)c(-c3nnnn3-c3cccc(Cl)c3Cl)c2)cc1` [I-A-95] had a pKi not below 7.00.

Turning to `Nc1ncc(-c2cnn(C3CCNCC3)c2)cc1-c1nnnn1-c1c(Cl)cccc1Cl` [I-A-631], the pKi is not below 7.00.

Turning to `CC(=O)N1CCCC1c1ccc(-c2cnc(N)c(-c3nnnn3-c3cccc(F)c3F)c2)cc1` (centres unmarked) [I-A-335], the pKi is not below 7.00.

Take `Nc1ncc(-c2ccccc2O)cc1-c1nnnn1-c1cccc(F)c1F` [I-A-145]: the pKi was not below 7.00.

The molecule `Nc1ncc(-c2cccc(NC(=O)Nc3cccnc3)c2)cc1-c1nnnn1-c1cccc(F)c1F` [I-A-272] had a pKi not below 7.00.

`CC(N)c1ccc(-c2cnc(N)c(-c3nnnn3-c3cccc(F)c3F)c2)cn1` (centres unmarked) [I-A-129] gave a pKi not below 7.00.

For `Nc1ncc(-c2ccc(CN3CCCC3)cc2)cc1-c1nnnn1-c1cc(F)ccc1Cl` [I-A-596], the pKi is 6.00 to 7.00.

With `Cc1c(F)cccc1-n1nnnc1-c1cc(-c2ccc(CN(C)C)cc2)cnc1N` [I-A-577], the pKi was 6.00 to 7.00.

With `Nc1ncc(-c2cnn(C3CCNCC3)c2)cc1-c1nccn1-c1cccc(Cl)c1Cl` [I-A-394], the pKi was not below 7.00.

`CCCN(CCC)Cc1ccc(-c2cnc(N)c(-c3nnnn3-c3cccc(F)c3F)c2)cc1` [I-A-156] gave a pKi not below 7.00.

Take `Nc1ncc(-c2cccnc2)cc1-c1nc2cnccc2n1-c1cccc(F)c1F` [I-D-1]: the pKi was not below 7.00.

With `CC1(C)CN(c2cccc(-c3cnc(N)c(-c4nnnn4-c4cccc(F)c4F)c3)c2)C1=O` [I-A-324], the negative logarithm of the Ki (pKi) was 6.00 to 7.00.

The molecule `Nc1ncc(-c2ccc3c(c2)C(=O)C(=O)N3)cc1-c1nnnn1-c1cccc(F)c1F` [I-A-204] had a pKi not below 7.00.

Molecule `CN(C)CCCNC(=O)c1ccc(-c2cnc(N)c(-c3nnnn3-c3cccc(F)c3F)c2)cc1` [I-A-136] had a pKi not below 7.00.

On to `CN(C)Cc1ccc(-c2cnc(N)c(-c3nnnn3-c3cc(F)cc(F)c3Cl)c2)cc1` [I-A-605], for which the negative-log Ki (pKi) is 6.00 to 7.00.

`CCNC(=O)Nc1nc2cc(-c3cnc(N)c(-c4nnnn4-c4cccc(F)c4F)c3)c(OC)cc2[nH]1` [I-A-142] showed a pKi of 6.00 to 7.00.

Take `C[C@@H](c1ccc(-c2cnc(N)c(-c3nnnn3-c3cccc(F)c3F)c2)cc1)N1CCCC1` [I-A-211]: the pKi is not below 7.00.

For `CN(Cc1ccc(-c2cnc(N)c(-c3nnnn3-c3cccc(Cl)c3Cl)c2)cc1)Cc1cccnc1` [I-A-107], the pKi was 6.00 to 7.00.

`Nc1ncc(-c2cnn(C3CCN(C4CCC4)CC3)c2)cc1-c1nnnn1-c1cccc(F)c1F` [I-A-451] had a pKi not below 7.00.

Regarding `Nc1ncc(-c2ccc(O)c(F)c2)cc1-c1nnnn1-c1cccc(F)c1F` [I-A-295], the pKi is not below 7.00.

Take `COc1cc(-c2cnc(N)c(-c3nnnn3-c3cccc(F)c3F)c2)cc(OC)c1OC` [I-A-296]: the pKi is 6.00 to 7.00.

For the molecule `Nc1ncc(-c2cccc(F)c2F)cc1-c1nnnn1-c1cccc(F)c1F` [I-A-301], the pKi was 6.00 to 7.00.

`CN(C)C(=O)N1CCC(n2cc(-c3cnc(N)c(-c4nnnn4-c4cccc(Cl)c4F)c3)cn2)CC1` [I-A-445] had a negative-log Ki (pKi) not below 7.00.

On to `CC(=O)Nc1cccc(-c2cnc(N)c(-c3nnnn3-c3c(F)ccc(F)c3Cl)c2)c1` [I-A-613], for which the pKi is 6.00 to 7.00.

`CC(=O)c1cccc(-c2cnc(N)c(-c3nnnn3-c3cccc(F)c3F)c2)c1` [I-A-218] had a pKi not below 7.00.

For the molecule `CSc1ccccc1-c1cnc(N)c(-c2nnnn2-c2cccc(F)c2F)c1` [I-A-252], the pKi was 6.00 to 7.00.
